# Data reported in PubChem BioAssay (NCI).
# “And” between values parts separate entries of the source, which are not always exact repeats. Equal values may be shown once.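 Following 48 hours of exposure in 96-well plates, responses at five concentrations were used to interpolate endpoints linearly. GI50 is the concentration that inhibits growth by half. TGI is the concentration that stops growth completely.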
# Assays:
# Experiment in all cases: NCI-60 cell line screen, 48 h
# RXF 393 renal = test system: RXF 393 renal
# BT-549 breast = test system: BT-549 breast
# SK-MEL-28 melanoma = test system: SK-MEL-28 melanoma
# SR leukemia = test system: SR leukemia
# HL-60(TB) leukemia = test system: HL-60(TB) leukemia
# SNB-19 CNS = test system: SNB-19 CNS
# RPMI-8226 leukemia = test system: RPMI-8226 leukemia
# UACC-257 melanoma = test system: UACC-257 melanoma
# HCC-2998 colon = test system: HCC-2998 colon
# HCT-15 colon = test system: HCT-15 colon
Compound,GI50 (RXF 393 renal),TGI (RXF 393 renal),GI50 (BT-549 breast),TGI (BT-549 breast),GI50 (SK-MEL-28 melanoma),TGI (SK-MEL-28 melanoma),GI50 (SR leukemia),TGI (SR leukemia),GI50 (HL-60(TB) leukemia),TGI (HL-60(TB) leukemia),GI50 (SNB-19 CNS),TGI (SNB-19 CNS),GI50 (RPMI-8226 leukemia),TGI (RPMI-8226 leukemia),GI50 (UACC-257 melanoma),TGI (UACC-257 melanoma),GI50 (HCC-2998 colon),TGI (HCC-2998 colon),GI50 (HCT-15 colon),TGI (HCT-15 colon)
Cc1cc[c-]cc1.Fc1c[c-]c(-c2ccccn2)c(F)c1.N#CCC[PH+](CCC#N)c1ccccc1.[Pt+2],2.07 µM,4.78 µM,3.22 µM,31.6 µM,2.18 µM,4.84 µM,2.22 µM,10 µM,2.37 µM,18.1 µM,4.91 µM,> 100 µM,3.3 µM,31.2 µM,1.9 µM,4.41 µM,3.22 µM,10.5 µM,2.89 µM,11.6 µM
COc1ccc(-c2nnc3n(C)c(=O)c4ccccc4n23)cc1O,0.758 µM,6.21 µM,2.91 µM,> 100 µM,12.2 µM,> 100 µM,0.1 µM,> 100 µM,0.13 µM,1.32 µM,0.862 µM,> 64.9 µM,5.01 µM,> 100 µM,–,–,2.98 µM,97.9 µM,0.153 µM,> 100 µM
CC[C@](O)(C(=O)O)c1cc2n(c(=O)c1CO)Cc1cc3ccccc3nc1-2,0.0278 µM and < 0.0225 µM,1.1 µM and 0.476 µM and 0.15 µM,0.107 µM,11.5 µM and 18.5 µM,0.147 µM and 0.169 µM and 0.0493 µM,–,–,–,< 0.0025 µM,0.347 µM and 2.5 µM,0.00337 µM and 0.02 µM,–,0.00677 µM and 0.0458 µM,–,0.0236 µM and 0.0374 µM and 0.0873 µM,0.278 µM and 0.953 µM and 0.582 µM,–,–,0.26 µM and 0.0703 µM,25 µM and 7.92 µM
O=C1C[C@@H](c2ccccc2)NCCCCN(O)CCCN1,–,> 100 µM,–,> 100 µM,–,> 100 µM,–,–,–,> 100 µM,–,> 100 µM,–,> 100 µM,–,> 100 µM,–,> 100 µM,–,> 100 µM
C[C@@H]1CN(Cc2ccc(/C=C/c3n[nH]c4ccc5nc(-c6cn[nH]c6C(F)(F)F)c6c(c5c34)CCCC6)cc2)C[C@H](C)O1,1.85 µM,5.79 µM,3.09 µM,14.8 µM,7.11 µM,21.2 µM,–,–,6.32 µM,28.5 µM,10.2 µM,22.1 µM,–,–,13.3 µM,30.9 µM,2.57 µM,10.5 µM,1.76 µM,11.3 µM
CCOC(=O)Nc1nc2c(F)c(F)c(F)cc2s1,29.6 µM,> 100 µM,58.3 µM,> 100 µM,> 100 µM,> 100 µM,> 100 µM,> 100 µM,> 100 µM,> 100 µM,> 100 µM,> 100 µM,> 100 µM,> 100 µM,> 100 µM,> 100 µM,> 100 µM,> 100 µM,> 100 µM,> 100 µM
Nc1c(C(=O)Nc2cccc3ccccc23)sc2nc3c(cc12)CCCC3,2.77 µM,> 100 µM,1.4 µM,17.2 µM,19.2 µM,> 100 µM,0.267 µM,6.38 µM,0.233 µM,0.802 µM,4.12 µM,> 100 µM,2.77 µM,> 100 µM,40.5 µM,> 100 µM,4.17 µM,> 100 µM,0.565 µM,> 100 µM
